Assay [1] concerns ovariectomized rats. The assay can be described thus: Bone mineral density after six weeks of repeated administration to ovariectomized rats. The settings on record: once a day for six weeks, Compound 7 30 mg/kg oral. It counts as in vivo, rat. The method, then:
Female Crl:CD(SD) rats obtained from Charles River Japan, Inc. were acclimated for one week or longer under standard laboratory conditions of 20° C. to 26° C. and 35% to 75% humidity, and then used in experiments. The rats had free access to tap water and a standard rodent diet (CE-2) (Clea Japan Inc.) containing 1.1% calcium, 1.0% phosphoric acid, and 250 IU/100 g vitamin D3.
Twelve-week old rats were subjected to removal of both ovaries by surgery (OVX) or to sham surgery (Sham). After the body weight was determined in the fourth week after surgery, the rats were divided into groups so that the average body weight of each group of six rats would be even. From the subsequent day after group division, each rat was subjected to repeated administration once a day for six weeks. The solvent for oral administration (vehicle) and the solvent for subcutaneous administration (PC buffer) were respectively administered orally and subcutaneously to rats of the Sham-Control group. Vehicle and PC buffer were orally and subcutaneously administered to rats of the OVX-Control group, respectively. To rats of OVX-Compound 7, the above-mentioned Compound 7 dissolved in the vehicle was orally administered at a dose of 30 mg/kg, and PC buffer was administered subcutaneously. To rats of the OVX-hPTH(1-34) group, the vehicle was orally administered, and hPTH(1-34) dissolved in PC buffer was subcutaneously administered at a dose of 0.9 nmol/kg.
The level of AUC (area under the curve for blood concentration vs. time) was the same as when 20 μg of Forteo®, a therapeutic agent clinically used for osteoporosis, is administered to humans when the administration dose for rats was set to 0.9 nmol/kg. The administration doses were 5 mL/kg for oral administration and 1 mL/kg for subcutaneous administration in all groups. The vehicle used was a composition prepared from 10% dimethyl sulfoxide (Wako Pure Chemical Industries, Ltd.), 10% Kolliphor EL (Sigma-Aldrich Japan), and 10% hydroxypropyl-β-cyclodextrin (Nihon Shokuhin Kako Co., Ltd), whose pH was adjusted to 10 using glycine (Wako Pure Chemical Industries, Ltd.) and sodium hydroxide (Wako Pure Chemical Industries, Ltd.). The PC buffer used was a composition prepared from 25 mmol/L phosphate-citrate buffer, 100 mmol/L NaCl, and 0.05% Tween80, adjusted to pH 5.0. […] The bone mineral densities of the lumbar spine and femur were determined using a dual X-ray bone mineral scanner (DCS-600EX, Aloka). The lumbar spine bone mineral density was determined by measuring the second to fourth lumbar vertebrae; and the femur bone mineral density was determined by vertically dividing the femur into ten parts, and measuring the three parts at the distal end of the knees. […]

Assay [2] deals with human articular chondrocytes. Kind of assay: Proteoglycan synthesis by human articular chondrocytes (35S-sulfate incorporation). It is filed as cell-based. The settings on record: cultured for 13 days. The method, then:
After purchase of cryopreserved human articular chondrocytes (Lot 2867, Cell Applications Inc.), the cells were thawed in a 37° C. water bath, 15 mL of Basal Medium supplemented with 10% Growth Supplement (Growth Medium, Cell Applications Inc.) was placed in a T75 culture flask (CORNING, Corning Japan K. K.) to culture the cells, and exchanged the next day with 15 mL of Growth Medium; and the cells were cultured for three days. Growth Medium was then removed, and HBSS (Cell Applications Inc.) was used to wash the chondrocyte layer. With addition of 1 mL of trypsin/EDTA solution (Cell Applications Inc.), this was left to stand at room temperature for approximately five minutes, and chondrocytes were detached from the flask. With 10 mL of Neutralization solution (Cell Applications Inc.) added, Bulker-Turk hemocytometer was used to determine the cell count, and the cells were then transferred to a 15-mL test tube for centrifugation (1,200 rpm for five minutes, Tomy Seiko Co., Ltd.) to produce a chondrocyte pellet. The supernatant was discarded, and the cells were placed in a 1.2% sodium alginate solution (25 mmol/L HEPES/150 mmol/L sodium chloride solution, pH7.0) at 2×10^6 cells/mL. This was drawn into a 1-mL syringe (Terumo Corporation) equipped with a 22G injection needle, five drops were added to each well of a 24-well plate (Corning Japan K.K.) containing 2 mL of 102 mmol/L aqueous CaCl2 solution, and this was left to stand for five minutes to form beads. Subsequently, this was washed three times with a 150 mmol/L sodium chloride solution and incubated for one day in Growth Medium, and the medium was exchanged with Basal Medium supplemented with 1% Growth supplement (Cell Applications Inc.). In this procedure, the following factors were added to the medium, and the cells were cultured for 13 days with three times of medium exchange performed per week.
On day 12 of culturing, ^35S-labeled sulfuric acid (PerkinElmer Japan Co., Ltd.) was added at 370 kBq/well, and the medium was collected 24 hours later into a test tube and stored at 4° C. To the alginate gel, a 55 mmol/L sodium citrate solution (Nacalai Tesque, Inc.; 1 mL/well) was added, and this was incubated at 37° C. for ten minutes for solation. This was collected into a microtube (Eppendorf AG) and then centrifuged (1,200 rpm, five minutes) to produce a chondrocyte pellet. […] The glass filter was transferred to a liquid scintillation counter vial, 5 mL of scintillator (Hionic-Fluor, PerkinElmer Japan Co., Ltd.) was added and radioactivity was measured on a liquid scintillation counter (TRI-CARB, PerkinElmer Japan Co., Ltd.).
The remaining 0.1 mL of the digested solution was used for DNA quantification. […]

For `Cc1cc(N2C(=O)NC(=O)C2(C)C)cc(C)c1CCS(=O)(=O)N1CCC2(CC1)N=C(c1ccc(OC(F)(F)F)cc1)NC2=O` [Compound 7, 1-(3,5-dimethyl-4-(2-((4-oxo-2-(4-(trifluoromethoxy)phenyl)-1,3,8-triazaspiro[4.5]deca-1-en-8-yl)sulfonyl)ethyl)phenyl)-5,5-dimethylimidazolidine-2,4-dione], the “lumbar spine bone mineral density with respect to the OVX-Control group (in words)” value in assay [1] is recorded as “increasing trend”. Besides, in assay [1] (hPTH(1-34) 0.9 nmol/kg subcutaneous), the “percentage of increase in femur bone mineral density with respect to the OVX-Control group” value turned out to be 12%. In addition, the “radioactivity (proteoglycan synthesis, cpm/μg DNA) relative to the vehicle control” value in assay [2] (10^−5 mol/L) is on record as 10 fold; in assay [2] (10^−6 mol/L), 3 fold.

Values taken from US9993462B2, “Hydantoin derivative-containing pharmaceutical composition” (Chugai Seiyaku Kabushiki Kaisha, priority 2014, dated 2018).
